According to US20230414776A1, “Small Molecule-Nanobody Conjugate Inducers of Proximity (SNACIP) and Preparation Methods and Use thereof” (Harbin Institute of Technology, priority 2022, published 2023):

What was measured:
Format in all cases: cell-based
[1] = tested on: eDHFR and HaloTag; assay: TMP-Cl induced targeting of Rac1 to plasma membrane (eDHFR/HaloTag); details: TMP-Cl 10 μM, 1 h, excess washed off 30 min, HeLa
[2] = tested on: mEYFP; assay: Regulation of GFP mutant mEYFP localization; details: TMP 10 μM, 10 min
Excerpt: Yellow fluorescent protein mEYFP and turquoise fluorescent protein mTurquoise2 are close mutants of the GFP. […] This is an interesting phenomenon, but can also be reasonably explained: Asn146 in GFP, a residue that has a key hydrogen-bonding interaction with the Asn99 residue of GBP, is retained in EGFP and mEYFP, but is mutated to Ile146 in mTurquoise2. […] Therefore, cRGT is an all-rounder, can regulate the proteins of interest to which EGFP, mEYFP and eDHFR are fused, and also has good orthogonality to other fluorescent proteins.

[3] = tested on: Rac1; assay: Rac1 localization to plasma membrane and lamellipodia formation by cRGT
Excerpt: A constitutively active mutant EGFP-NES-Rac1Q61LΔCAAX (G-NES-Rac1 for short, green, cytoplasmic distribution) without the plasma membrane targeting ability and lacking the CAAX-box sequence and mCherry-eDHFR-CAAX (red, plasma membrane localized), being co-expressed in living HeLa cells; treatment of the HeLa cells with cRGT will localize the Rac1 mutant to the functional location of the plasma membrane, which in turn induces a signaling cascade process during lamellipodia formation. Confocal micrographs of representative living HeLa cells co-expressing G-NES-Rac1 and mCherry-eDHFR-CAAX, before treatment with cRGT (Pre), after treatment with 24 μM cRGT, and after addition of TMP at a final concentration of 10 μM. Statistical analysis of colocalization between the EGFP channel and the mCherry channel by PCC were shown. Statistical analysis of cell areas before treatment with cRGT (Pre), after treatment with 24 μM cRGT, and after treatment with TMP at a final concentration of 10 μM was also shown. […] Curve comparison of streak analysis of cells after dimerization induced by cRGT and TMP-Cl. […] Abbreviations in the pictures: mCherry is abbreviated as mChe or R; EGFP is abbreviated as G; mTurquoise2 is abbreviated as mTurq or C; eDHFR is abbreviated as ED; HaloTag is abbreviated as HT. All scales: 10 μm. […]

[4] = tested on: EGFP in HeLa cells; assay: Localization of EGFP to subcellular structures; details: TMP 10 μM, 10 min
Description: Treatment of living cells with an SNACIP inducer of dimerization for microscopic imaging: Unless otherwise specified, first a DMEM complete medium of the cells is replaced with a phenol red-free imaging medium of the SNACIP inducer of dimerization of the corresponding concentration, and then imaging is performed after incubation for a given period of time. For cRGT, the concentration represents an effective ratio of cRGT; and near-complete dimerization regulation may be achieved without washing off excess cRGT before imaging.
Many cellular processes are regulated by dynamic distribution of proteins in the cell.

SMILES | PCC of colocalization [1] | reversal of mEYFP localization [2] | reversal of Rac1 localization and morphology change ([3]; 10 μM TMP) | average area of cells after TMP addition ([3]; 10 μM TMP after cRGT) | reversal of Golgi localization [4] | reversal of mitochondrial localization [4]
COc1cc(Cc2cnc(N)nc2N)cc(OC)c1OCCOCCOCCOCCOCCOCCCCCCCl [TMP-Cl] | around 0.7 |  |  |  |  | 
COc1cc(Cc2cnc(N)nc2N)cc(OC)c1OC [TMP, trimethoprim] |  | rapidly reversible | completely reversed | decreased significantly | also rapidly reversible | rapidly reversible
